# Test results published in patent US11447486B2, “2-amino-benzimidazole derivatives and their use as 5-lipoxygenase and/or prostaglandin E synthase inhibitors” (INSTITUT PASTEUR KOREA, priority 2014, dated 2022).
# Read-outs that look alike come from different tables or passages of the source.
# Key:
# human 5-LOX = biological target: T1, human 5-LOX (Homo sapiens, UniProt P09917); experiment: 5-LOX enzyme activity, fluorescence method (5-HPETE, H2DCFDA); format: biochemical
# T1 construct: purchased Cayman 60402; host or cells: insect cells (lysate)
# T1 sequence (P09917 1-674): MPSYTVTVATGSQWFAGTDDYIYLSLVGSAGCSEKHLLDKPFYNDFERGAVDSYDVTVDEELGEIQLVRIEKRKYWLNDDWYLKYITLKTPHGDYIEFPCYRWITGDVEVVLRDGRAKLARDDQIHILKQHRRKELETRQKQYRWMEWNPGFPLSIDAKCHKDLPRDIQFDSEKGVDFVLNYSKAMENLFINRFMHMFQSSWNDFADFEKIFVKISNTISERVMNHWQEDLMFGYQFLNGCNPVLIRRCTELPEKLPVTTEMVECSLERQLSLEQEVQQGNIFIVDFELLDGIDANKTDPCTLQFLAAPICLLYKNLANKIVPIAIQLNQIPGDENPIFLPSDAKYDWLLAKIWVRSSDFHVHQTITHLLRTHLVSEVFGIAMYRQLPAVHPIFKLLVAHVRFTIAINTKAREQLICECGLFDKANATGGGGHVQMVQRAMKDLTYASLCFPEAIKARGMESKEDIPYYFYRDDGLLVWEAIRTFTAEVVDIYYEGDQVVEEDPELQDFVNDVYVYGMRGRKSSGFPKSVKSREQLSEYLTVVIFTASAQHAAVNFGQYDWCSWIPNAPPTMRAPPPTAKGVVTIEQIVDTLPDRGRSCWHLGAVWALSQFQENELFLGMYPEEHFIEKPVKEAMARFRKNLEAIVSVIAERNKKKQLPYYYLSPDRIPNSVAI
# Outline: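 Compound (0.5 nM to 10 uM) pre-incubated 5 min with enzyme; reaction started with ATP (100 uM final) and arachidonic acid (3 uM final). All steps at room temperature, fluorescence read-out.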
# [1] = tested on: Rat basophilic leukemia (RBL) cells; experiment: LTB4 secretion assay in RBL (rat basophilic leukemia cells); format: cell-based; conditions: Rattus norvegicus
# Outline: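 Cells seeded 2×10^4/well the day before, then pre-incubated 15 min at 37 °C in EMEM/0.5% FBS with compound (5 nM to 100 uM). Stimulation with 2.5 uM arachidonic acid plus 5 uM A23187 (final) for 10 min at 37 °C; LTB4 in supernatant quantified by EIA.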
# Rat whole blood (RWB) = experiment: LTB4 secretion assay in RWB (rat whole blood); format: cell-based; conditions: Rattus norvegicus
# Outline: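 Heparinized blood from male Sprague Dawley rats (6-9 weeks) diluted 1:1 in RPMI, pre-incubated 15 min at 37 °C with compound (2.5 nM to 50 uM). Stimulated with 10 uM calcium ionophore A23187 for 10 min at 37 °C, stopped with ice-cold PBS; LTB4 in supernatant quantified by EIA.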
# HeLa S3 cells = experiment: PGE2 inhibition assay (HTRF) in TNF-α stimulated HeLa S3 cells; format: cell-based; conditions: Homo sapiens; PGE2, 10 uM compound, HeLa S3 stimulated with TNF-α
# Method: Human epitheloid cervix carcinoma HeLa S3 cells (2×10^6cells/ml) were seeded with modified F-12K buffer medium pH 7.4 in tissue culture plate and incubated for overnight at 37° C. and 5% CO2. Then medium was changed into new medium contained 10 uM testing compounds or 0.1% DMSO and incubated overnight. After incubation, cells were stimulated with 30 nM TNF-α (Tumor necrosis factor-α) for 16 h. For determination of PGE2, the supernatant was measured by PGE2 HTRF (Homogeneous Time Resolved Fluorescence) assay kit Inhibition of PGE2 by compounds is calculated as a percentage of activity in the presence of drug versus the activity in the stimulator TNF-α.
Compound,IC50 (human 5-LOX; read-out: 5-LO (IC50)) [µM],melting point,EC50 ([1]; RBL) [µM],EC50 (Rat whole blood (RWB)) [µM],inhibition at 10 µM (HeLa S3 cells) [%],"IC50 (human 5-LOX; 5-LO (IC50, uM)) [µM]",EC50 [1] [µM]
CN(C)c1nc2cc(N)ccc2n1CCOc1ccc(OC(F)(F)F)cc1 [Compound 43],1 to 10,60.8 to 61.6 °C,< 10,> 20,–,–,–
CC(C)(C)c1ccc(CNc2nc3ccc(N)cc3[nH]2)cc1 [Compound 116],< 1,> 130.8 °C,< 10,10 to 20,–,–,–
CC(C)(C)Oc1ccc(CNc2nc3ccc(N)cc3[nH]2)cc1 [Compound 121],< 1,> 59.7 °C,< 10,> 20,–,–,–
Nc1ccc2[nH]c(NCc3ccc(N4CCN(c5ccc(OC(F)(F)F)cc5)CC4)cc3)nc2c1 [Compound 114],< 1,> 220 °C,10 to 20,> 20,–,–,–
Nc1ccc2[nH]c(NCc3cccc(Oc4ccccc4)c3)nc2c1 [Compound 103],< 1,–,< 10,< 10,> 70,–,–
CC(C)(Nc1ccc2[nH]c(NCc3ccc(Oc4ccccc4)cc3)nc2c1)C(N)=O [Compound 109],< 1,> 173 °C,< 10,< 10,–,–,–
CC(Cc1ccc(Cl)cc1Cl)Nc1nc2cc(N)ccc2[nH]1 (stereo not shown) [Compound 107],< 1,> 200.9 °C,< 10,> 20,–,–,–
Nc1cc2nc(NCc3ccc(Oc4ccc(Cl)cc4)cc3)[nH]c2cc1Cl [Compound 147],< 1,191.4 to 193.5 °C,< 10,< 10,–,–,–
Nc1ccc2[nH]c(NCc3ccc(Oc4ccc(Cl)cc4)cc3)nc2c1 [Compound 86],< 1,–,< 10,< 10,> 70,–,–
Nc1ccc2nc(N)n(Cc3ccc(Oc4ccc(Cl)cn4)cc3)c2c1 [Compound 195],< 1,–,< 10,< 10,< 40,–,–
Nc1ccc2[nH]c(N3CCC(Oc4ccc(OC(F)(F)F)cc4)C3)nc2c1 (stereo not shown) [Compound 54],< 1,–,< 10,< 10,> 70,–,–
Nc1ccc2nc(N)n(Cc3ccc(Oc4ccc(Cl)cc4)cc3)c2c1 [Compound 111],< 1,156.4 to 158.5 °C,< 10,< 10,–,–,–
Nc1ccc2c(c1)nc(N)n2CCc1ccc(F)cc1 [Compound 42],1 to 10,178.2 to 179.6 °C,10 to 20,–,–,–,–
Nc1ccc2nc(NCc3ccc(Cl)cn3)[nH]c2c1 [Compound 158],–,101.8 to 104 °C,–,–,–,< 1,> 20
Cn1c(NCc2ccc(Oc3ccc(C(F)(F)F)nc3)cc2)nc2ccc(NC3COC3)cc21 [Compound 226],< 1,–,< 10,< 10,> 70,–,–
Nc1ccc2[nH]c(NCc3ccc(Oc4cccc(Cl)c4)cc3)nc2c1 [Compound 122],< 1,> 160.8 °C,< 10,< 10,–,–,–
CN(C)c1ccc2[nH]c(NCc3ccc(Oc4ccccc4)cc3)nc2c1 [Compound 98],< 1,116.8 to 118.7 °C,< 10,< 10,–,–,–
Nc1ccc2[nH]c(NCc3ccc(Oc4ccc(F)c(Cl)c4)cc3)nc2c1 [Compound 102],< 1,58.4 to 66.6 °C,< 10,< 10,–,–,–
c1ccc(Oc2ccc(CNc3nc4cc(NC5CCOC5)ccc4[nH]3)cc2)cc1 (stereo not shown) [Compound 119],< 1,> 54.3 °C,< 10,< 10,–,–,–
Cn1c(NCCOc2ccc(OC(F)(F)F)cc2)nc2cc(N)ccc21 [Compound 53],< 1,–,< 10,< 10,> 70,–,–
Cn1c(NCc2ccc(Oc3nc4ccc(Cl)cc4n3C)cc2)nc2ccc(NC3COC3)cc21 [Compound 423],< 1,138.9 to 140.8 °C,< 10,–,–,–,–
CN(C)c1nc2ccc(N)cc2n1CCOc1ccc(OC(F)(F)F)cc1 [Compound 44],< 1,> 133 °C,< 10,> 20,40 to 70,–,–
FC(F)(F)Oc1ccc(OC2CCN(c3ccc4nc(N5CCCC5)[nH]c4c3)C2)cc1 (stereo not shown) [Compound 99],< 1,–,< 10,> 20,> 70,–,–
Nc1ccc2nc(NC3CCCC3)n(CCOc3ccc(OC(F)(F)F)cc3)c2c1 [Compound 120],< 1,200.7 to 201.3 °C,< 10,< 10,–,–,–
CC(C)(Nc1ccc2[nH]c(NCc3ccc(Oc4ccc(Cl)cc4)cc3)nc2c1)C(N)=O [Compound 118],< 1,> 113.2 °C,< 10,> 20,–,–,–
Nc1ccc2[nH]c(NCc3cccc4ccccc34)nc2c1 [Compound 91],< 1,> 107.8 °C,< 10,10 to 20,> 70,–,–
O=C(Nc1nc2cc(NCc3cnc[nH]3)ccc2[nH]1)c1ccc(F)cc1 [Compound 27],1 to 10,> 142.9 °C (dec.),> 20,–,–,–,–
